Experiments:
[1] = system: RIF-1 tumors; assay: Tumor oxygen by EPR oximetry at different irradiances; assay type: in vivo, mice; conditions: light 3 hours post-injection; for tumor pO2 levels during treatment, low irradiance: 50 mW/cm^2 verteporfin, 30 mW/cm^2 ALA-PPIX; for tumor pO2 levels during treatment, high irradiance: 200 mW/cm^2 verteporfin, 150 mW/cm^2 ALA-PPIX
Description: Tumor oxygen changes were measured in mice treated either with aminolevulinic acid-induced protoporphyrin IX (ALA-PPIX) or verteporfin. Using electron paramagnetic resonance (EPR) oximetry described in Example 1, two irradiance levels were performed three hours post-injection of verteporfin or ALA-PPIX. Irradiance levels for ALA-PPIX were 30 mW/cm^2 and 150 mW/cm^2, whereas 50 mW/cm^2 and 200 mW/cm^2 were used for verteporfin.
EPR oximetry measured tumor oxygenation in RIF-1 tumor cells and in tumorigenic mice treated with photodynamic therapy, using synthetic lithium phthalocyanine (LiPc) as the oxygen-sensitive EPR material. Small particles between 50 and 200 μm in size were implanted into the animal tumors by 23-gauge needle at a depth of 1-3 mm within the tumor. Injections of LiPc were performed at least 24 hours prior to photodynamic therapy. Mice were placed in an L-band (1.2 GHz) EPR spectrometer with a microwave bridge that was custom-built for small animal experiments involving measurement of tissue pO2. Each mouse was anesthetized and placed in the EPR resonator for continuous measurement of the tumor tissue pO2 in 15-minute intervals. The external loop resonator was positioned over the tumor to record the EPR signal of injected LiPc within the tissue. Line widths of the EPR signal were converted to pO2 using a calibration curve determined for LiPc. The data were fit with a software program to match the Voigt line shape after the line widths were graphed as a function of time before, during, and after treatment.

[2] = system: RIF-1 tumors; assay: Tumor pO2 by Eppendorf electrode after ALA photodynamic therapy; assay type: in vivo, mice
Description: To independently confirm the results described above in ALA-PPIX-treated animals, Eppendorf pO2 electrode measurements were performed in the same tumor model. Two sections of animals with tumors were irradiated for 45 minutes. The first group of animals received ALA-injections 3 hours prior to light irradiation at a concentration of 100 mg/kg, and the second group received light alone. The light was at a wavelength of 633 nm, at a fluence of 150 mW/cm^2. Measurements were taken from the tumors immediately after the light was turned off. […] Collected data were pooled from three tracks in each animal with seven control animals (FIG. 7A) and 6 treated animals (FIG. 7B). The median pO2 for the control group was 3.7 mm Hg, while the median for the treated group was 8.7 mm Hg. Clearly, significant increases in tumor oxygenation occurred after treatment.

[3] = system: RIF-1 cells; assay: In vitro cellular oxygen consumption rate by EPR oximetry; assay type: cell-based, mouse; conditions: 1 μg/ml BPD, 3-hour incubation
Description: (§1) RIF-1 cells were plated three days prior to treatment in black, plastic 96-well plates with a transparent bottom (Fisher Scientific, Springfield, N.J.) at a density of 5000 cells/200 μl medium/well. After 3 days of growth in 5% CO2 at 37° C. in a humidified incubator, the cells were used in photodynamic therapy. On the day of treatment, the medium was replaced with 100 μl/well of medium with 1 μg/ml BPD in the verteporfin preparation. After a 3-hour incubation, the BPD solution was removed and rinsed once with Hanks Balanced Salt Solution (HBSS), then 100 μl of fresh medium was added to the wells. Cells were irradiated in groups of four wells, with blank wells between the treated groups to ensure that each group of wells received the correct dose of light. In each 96-well plate, squares of 4 were treated with increasing light doses with 8 groups/plate, including the control, non-irradiated group. Surviving cells were assayed for viability and/or cellular oxygen consumption.
Immediately following photodynamic therapy, cells were trypsinized, suspended in fresh medium, and cell viability determined by trypan blue dye exclusion prior to use in oxygen consumption measurement. […] The rate of oxygen consumption was measured using EPR. […] A Bruker EMX EPR spectrometer measured all spectra, operating at 9 GHz. […] The slope of the obtained data was determined by linear regression. […]

[4] = system: RIF-1 tumors; assay: Tumor regrowth assay, photodynamic therapy alone or combined with radiation; assay type: in vivo, mice
Description: The combination effect of photodynamic therapy and radiation therapy was examined in in vivo tumor models. Injection of PBD or saline (control) was given 3 hours prior to irradiation in all animals. Light at 690 nm wavelength was delivered t the photodynamic therapy treated animals while the animal was positioned in the irradiator cone. An irradiance of 133 mW/cm^2 was used for a total of 12 minutes, for a total dose of 100 J/cm^2. Radiation was administered at a single dose of 10 Gy (300 keV, 10 mA, HVL=2.33 Gy/min). The following groups were organized: (1) sham-irradiated controls, (2) radiation treatment alone, (3) photodynamic therapy alone, (4) radiation treatment followed by photodynamic therapy, and (5) photodynamic therapy with simultaneous radiation treatment. In Group 4, X-ray radiation was administered for the full 3-minute treatment period after the photosensitizer was injected and incubated in the animal for 3 hours, then irradiation was given for 12 minutes. The Group 5 animals received irradiation 3 hours after drug injection, and during the last three minutes of the irradiation. X-ray irradiation was also given to the tumor at the same time.
Irradiation using the 10 Gy dose using approximately 300 keV was delivered in 3 minutes from a Pantak Therapax 300 orthovoltage irradiator, using a 2 cm collimation cone. This cone was contacted with a region of the mouse leg surrounding the tumor. The end of the collimation cone was comprised of transparent plastic, allowing radiation and treatment to occur at the same time (required for Group 5, where photodynamic therapy and radiation were simultaneously administered). All animals were treated with the cone in place, as well as Group 1 sham-irradiated mice and Group 3 photodynamic therapy alone mice. This was performed to ensure equal doses of light were given to all groups, which included changes in the beam from reflection and refraction through the irradiator cone.
Each group of mice were assayed for tumor regrowth following combined radiation/photodynamic therapy, radiation alone, or photodynamic therapy alone. The resulting treatment effect was assayed by calculation of tumor volume, as calculated by measurement of the three major axis dimensions: Volume≅Length×Width×Height/2 The time for a tumor to reach double its volume on the day of treatment was calculated for each individual animal separately, by estimating the data by a linear fit to logarithmic growth curves versus time. The average values from these times to double in volume were determined for each group of mice. Analysis of the tumor regrowth data, estimates of the mean double time (including standard deviation), and mice heterogeneity was achieved by generating individual growth curve data and fitting with a mixed effect model. It was assumed that after day 3, the tumor re-grows exponentially, which corresponds to a linear function when plotted on a semi-logarithmic graph. The time for a tumor to reach double its volume on the day of treatment was calculated for each group along with the respective standard deviation. The standard error gives rise to the group comparison using X-test to account for significant differences between the mean values of the different treatment groups.

[5] = system: RIF-1 tumors; assay: Tumor pO2 by EPR oximetry during verteporfin photodynamic therapy; assay type: in vivo, mice
Description: Measurements of tumor partial pressure of oxygen (pO2) were taken in mice that harbored tumors derived from injection of transformed cells. Radiation-induced fibrosarcoma (RIF-1) cells were used for in vivo studies. RIF-1 cells were obtained from the National Cancer Institute (NCI) and originated from the laboratory of James B. Mitchell. The cells were grown in culture in RPMI 1640 cell culture medium, supplemented with 10% fetal bovine serum (FBS), L-glutamine, and appropriate antibiotics. The cells were not passaged more than four times from the original stock. Cell cultures were scaled up to large culture flasks, then removed and resuspended in medium lacking FBS and injected at 4×10^6 cells/mouse in a 50 μl volume. Intradermal injection delivered the cancer cells into the upper right leg of female C3h/HeJ mice (age 5-6 weeks) approximately 11-14 days before the anticipated treatment time.
Verteporfin was obtained from QLT Phototherapeutics Inc. (Vancouver, BC, Canada) for use as photosensitizer. The photoactive molecule is a benzoporphyrin derivative mono-acid ring ‘A’ (BPD-MA), which was suspended in a lipid preparation comprising 1.77% of BPD-MA and the remaining 98.23% composed of the lipids. Verteporfin was reconstituted in phosphate buffered saline (PBS) at a final concentration of 0.2 mg BPD-MA/ml, then injected into mice lateral tail vein to deliver a dose of 1 mg BPD-MA per kg of body weight. The drug was allowed to incubate for varying times prior to light exposure.
A diode laser system with 200 mW average power was used, at a wavelength of 690 nm (Applied Optronics, South Plainfield, Conn.). The beam was delivered to the tumor site in animals through a 140 μm fiber-optic, and was expanded onto the tumor in a circular top-hat beam, using a fiber-optic collimator (Thor Labs, North Newton, N.J.). The beam diameter for in vivo experiments was 1.1 cm, producing an irradiance of 200 mW/cm^2. Light treatment was given transcutaneously with shaven animals.
Animals were anesthetized by isoflurane at a concentration of 1.5% mixed with 26% oxygen in a continuous flow, delivered by inhalation. The animal was maintained at 37° C. on a heated water pad. Warm air was allowed to flow over the animal. In the first treatment group, tumors were exposed to light three hours after verteporfin injection. The second group received light only 15 minutes after injection. These animals were monitored for tumor pO2 before, during, and after treatment. The second experimental group is thought to be indicative of eliciting a vascular occlusion response, and contrasts effects from 3-hour photosensitizer incubation. The third group received light without prior photosensitizer injection.
Tumor pO2 was monitored with an oxygen-sensitive electron paramagnetic resonance (EPR) probe material, synthetic lithium phthalocyanine (LiPc), which was implanted into tissue and allowed for stable measurements of tissue pO2 over several weeks. […] LiPc molecules between 50 and 200 μm in diameter were implanted into the animal tumors with a 23-gauge needle at least 24 hours before photodynamic therapy, allowing for resolution of acute fluctuations in pO2 due to injection. The particles were implanted at a depth of 1-3 mm within the tumor.
The animals were placed in an L-band (1.2 GHz) EPR spectrometer with a custom-made microwave bridge for measurements of tissue pO2. The external loop resonator was positioned over the tumor to record the EPR signal of the LiPc from within the tissue. […]

[6] = system: RIF-1 cells; assay: Cell viability (MTS assay) after in vitro photodynamic therapy; assay type: cell-based, mouse; conditions: 1 μg/ml BPD, 3-hour incubation, maximal light dose, MTS 24 hours after treatment
Description: as §1, with “In each 96-well plate, squares of 4 were treated with increasing light doses with 8 groups/plate, including the control, non-irradiated group. Surviving cells were assayed for viability and/or cellular oxygen consumption.” left out
Surviving cells were assayed 24 hours after treatment, using the MTS assay kit (CellTiter 96®AQueous, Promega, Madison, Wis.). […] After incubation for 1 h at 37° C., the absorbance of the formazan product at […] was measured directly in an automated plate reader (ThermoMax, Molecular Devices, Menlo Park, Calif.). The quantity of formazan product as measured by the amount of 490 nm absorbance units is directly proportional to the number of living cells in culture, and absorbance values from groups of wells that received the same light dose were averaged. […]

[7] = Group 4, radiation (10 Gy) then PDT
[8] = Group 5, PDT with simultaneous radiation (10 Gy)

NCC(=O)CCC(=O)O [ALA, 5-aminolevulinic acid]
tumor pO2 levels during treatment, low irradiance [1]: remained the same | tumor pO2 levels during treatment, high irradiance [1]: a measurable drop in oxygen | median tumor pO2 immediately after light ([2]; 100 mg/kg ALA 3 hours prior to 633 nm light, 150 mW/cm^2 for 45 minutes, light-only control median 3.7): 8.7 mm Hg | increase in tumor oxygenation ([2]; EPR oximetry and Eppendorf electrode, treated vs control): more than two-fold increases

benzoporphyrin derivative mono-acid ring ‘A’ (BPD-MA) [Verteporfin]
oxygen consumption rate ([3]; highest light dose 16 J/cm^2): 0.37±0.04 mmol/min/10^6 cells | oxygen consumption as % of control oxygen consumption rates ([3]; maximal light dose): 21±4% | tumor pO2 levels during treatment, low irradiance [1]: remained the same | tumor pO2 levels during treatment, high irradiance [1]: remained the same | Re-growth Delay in Doubling Time ([4]; Group 3, PDT only): 3.2 ± 1.7 | slope of the natural logarithm of tumor volume versus days ([4]; Group 3, PDT only): 0.13 | Time for Tumor to Double Initial Volume ([4]; Group 3, PDT only, injection 3 hours before 690 nm light, 100 J/cm^2): 8.9 ± 1.7 | Re-growth Delay in Doubling Time [4, 7]: 5.4 ± 1.4 | Time for Tumor to Double Initial Volume [4, 7]: 11.0 ± 1.5 | slope of the natural logarithm of tumor volume versus days ([4]; Group 4, radiation then PDT): 0.13 | slope of the natural logarithm of tumor volume versus days ([4]; Group 5, PDT with simultaneous radiation): 0.11 | Re-growth Delay in Doubling Time [4, 8]: 8.1 ± 1.5 | Time for Tumor to Double Initial Volume [4, 8]: 13.7 ± 1.6 | tumor pO2 at 1 h post-treatment ([5]; 1 mg/kg BPD-MA i.v., light 3 hours after injection): returned to within control, or pre-treatment values | final tumor pO2 immediately after treatment ([5]; 1 mg/kg BPD-MA i.v., light 3 hours after injection, 690 nm, 144 J/cm^2, p=0.048 vs control): 15.2±6.9 mm Hg | initial tumor pO2 ([5]; 1 mg/kg BPD-MA i.v., light 3 hours after injection, value before light): 2.8±1.0 mm Hg | average tumor pO2 prior to light exposure ([5]; 1 mg/kg BPD-MA injected 15 min prior to irradiation): 6.8±1.6 mm Hg | average tumor pO2 immediately following treatment ([5]; 1 mg/kg BPD-MA injected 15 min prior to irradiation (vascular targeting)): 4.1±0.3 mm Hg | cell survival [6]: 20±5%
